Measured values taken from ChEMBL document CHEMBL4196011, “The lead optimization of the polyamine conjugate of flavonoid with a naphthalene motif: Synthesis and biological evaluation” (Eur J Med Chem, 2018).

What was measured:
HCT-116 = experiment: Antiproliferative activity against human HCT116 cells after 48 hrs by MTT assay; format: functional, cell-based; conditions: HCT-116, 48 h
HT-29 = experiment: Antiproliferative activity against human HT-29 cells after 48 hrs by MTT assay; format: functional, cell-based; conditions: HT-29, 48 h
HeLa = experiment: Antiproliferative activity against human HeLa cells after 48 hrs by MTT assay; format: functional, cell-based
K562 = experiment: Antiproliferative activity against human K562 cells after 48 hrs by MTT assay; format: functional, cell-based; conditions: K562, 48 h
HepG2 = experiment: Antiproliferative activity against human HepG2 cells after 48 hrs by MTT assay; format: functional, cell-based; conditions: HepG2, 48 h
Mus musculus [1] = experiment: Toxicity in Kunming mouse xenografted with […] H22 cells assessed as effect on liver weight index at 100 mg/kg, ig administered for 7 consecutive days; format: organism-based; conditions: in vivo, po
H22 [2] = experiment: Antitumor activity against […] xenografted in Kunming mouse assessed as tumor growth inhibition at 100 mg/kg, ig for 7 consecutive days measured on day 16; format: functional; conditions: H22, po, 384 h, read-out: TGI
Mus musculus [3] = experiment: Toxicity in Kunming mouse xenografted with […] H22 cells assessed as effect on body weight at 100 mg/kg, ig administered for 7 consecutive days; format: organism-based; conditions: in vivo, po
Mus musculus [4] = experiment: Toxicity in Kunming mouse xenografted with […] H22 cells assessed as effect on heart weight index at 100 mg/kg, ig administered for 7 consecutive days; format: organism-based; conditions: in vivo, po
Mus musculus [5] = experiment: Toxicity in Kunming mouse xenografted with […] H22 cells assessed as effect on spleen weight index at 100 mg/kg, ig administered for 7 consecutive days; format: organism-based; conditions: in vivo, po
Mus musculus [6] = experiment: Toxicity in Kunming mouse xenografted with […] H22 cells assessed as effect on lung weight index at 100 mg/kg, ig administered for 7 consecutive days; format: organism-based; conditions: in vivo, po
Mus musculus [7] = experiment: Toxicity in Kunming mouse xenografted with […] H22 cells assessed as effect on kidney weight index at 100 mg/kg, ig administered for 7 consecutive days; format: organism-based; conditions: in vivo, po
[8] = Toxicity in Kunming mouse assessed as maximum tolerated dose administered for 7 consecutive days; format: organism-based; conditions: in vivo
H22 [9] = experiment: Antitumor activity against […] xenografted in Kunming mouse assessed as tumor growth inhibition at 10 mg/kg, iv for 7 consecutive days measured on day 16; format: functional; conditions: 384 h, read-out: TGI
[10] = Toxicity in iv dosed Kunming mouse assessed as maximum tolerated dose administered for 7 consecutive days; format: organism-based; conditions: in vivo

## COc1ccc2cc(-c3oc4c(CNCCCCNCCCCN)cccc4c(=O)c3OC)ccc2c1Br
HCT-116
  IC50: 19.3 µM
HT-29
  IC50: 21.8 µM
HeLa
  IC50: 9.63 µM
K562
  IC50: 18.5 µM
HepG2
  IC50: 14.3 µM

## COc1c(-c2ccc(-c3ccccc3)cc2)oc2c(CNCCCCN)cccc2c1=O
HCT-116
  IC50: 16.4 µM
HT-29
  IC50: 16.1 µM
HeLa
  IC50: 10.3 µM
K562
  IC50: 24.4 µM
HepG2
  IC50: 16.2 µM

## COc1c(-c2ccc(-c3ccccc3)cc2)oc2c(CNCCCCNCCCCN)cccc2c1=O
HCT-116
  IC50: 20.1 µM
HT-29
  IC50: 25.6 µM
HeLa
  IC50: 18.6 µM
K562
  IC50: 19.8 µM
HepG2
  IC50: 24.4 µM

## O=c1c(O)c(-c2ccc(O)c(O)c2)oc2cc(O)cc(O)c12 [QUERCETIN]
Mus musculus [1]
  Activity: Non-Toxic
H22 [2]
  inhibition in vivo at 100 mg/kg: 34.3 to 38.7%
Mus musculus [3]
  Activity: Non-Toxic
Mus musculus [4]
  Activity: Non-Toxic
Mus musculus [5]
  Activity: Non-Toxic
Mus musculus [6]
  Activity: Non-Toxic
Mus musculus [7]
  Activity: Non-Toxic

## COc1ccc2cc(-c3oc4c(CNCCCN)cccc4c(=O)c3OC)ccc2c1Br
HCT-116
  IC50: 12.8 µM
HT-29
  IC50: 23.1 µM
HeLa
  IC50: 11.2 µM
K562
  IC50: 19.2 µM
HepG2
  IC50: 15.1 µM

## COc1c(-c2ccc(-c3ccccc3)cc2)oc2c(CNCCN)cccc2c1=O
HCT-116
  IC50: 24.1 µM
HT-29
  IC50: 18.9 µM
HeLa
  IC50: 18.7 µM
K562
  IC50: 25.9 µM
HepG2
  IC50: 19.9 µM

## O=C1c2c(O)ccc(O)c2C(=O)c2c(NCCNCCO)ccc(NCCNCCO)c21 [MITOXANTRONE]
HCT-116
  IC50: 1.61 µM
HT-29
  IC50: 21.7 µM
HeLa
  IC50: 2.35 µM
K562
  IC50: 4.55 µM
HepG2
  IC50: 18.6 µM

## Cl.Cl.NCCCNCC(=O)NCc1cccc2c(=O)cc(-c3cccc4ccccc34)oc12
[8]
  MTD at 7 days: 20 mg/kg

## COc1c(-c2ccc(-c3ccccc3)cc2)oc2c(CNCCCNCCCCN)cccc2c1=O
HCT-116
  IC50: 14.8 µM
HT-29
  IC50: 31.4 µM
HeLa
  IC50: 13.9 µM
K562
  IC50: 15.8 µM
HepG2
  IC50: 22.2 µM

## COc1c(-c2ccc(-c3ccccc3)cc2)oc2c(CNCCCN)cccc2c1=O.Cl.Cl
HCT-116
  IC50: 5.1 µM
HT-29
  IC50: 8.25 µM
HeLa
  IC50: 7.8 µM
K562
  IC50: 9.3 µM
HepG2
  IC50: 10.4 µM
H22 [9]
  inhibition in vivo at 10 mg/kg: 31.5%
[10]
  MTD at 7 days: 15 mg/kg

## NCCCNCc1c(-c2ccc(-c3ccccc3)cc2)oc2ccccc2c1=O
HCT-116
  IC50: 23.4 µM
HT-29
  IC50: 24.7 µM
HeLa
  IC50: 20.5 µM
K562
  IC50: 41.6 µM
HepG2
  IC50: > 50 µM
